Source: patent US20240116985A1, “STAPLED PEPTIDES AND METHODS THEREOF” (priority 2020, published 2024)

Biological target: T1, full-length beta-Catenin (Uniprot ID P35222) (Homo sapiens, UniProt P35222)
T1 construct: 10 nM full-length beta-Catenin (Uniprot ID P35222)
T1 sequence (P35222 1-781): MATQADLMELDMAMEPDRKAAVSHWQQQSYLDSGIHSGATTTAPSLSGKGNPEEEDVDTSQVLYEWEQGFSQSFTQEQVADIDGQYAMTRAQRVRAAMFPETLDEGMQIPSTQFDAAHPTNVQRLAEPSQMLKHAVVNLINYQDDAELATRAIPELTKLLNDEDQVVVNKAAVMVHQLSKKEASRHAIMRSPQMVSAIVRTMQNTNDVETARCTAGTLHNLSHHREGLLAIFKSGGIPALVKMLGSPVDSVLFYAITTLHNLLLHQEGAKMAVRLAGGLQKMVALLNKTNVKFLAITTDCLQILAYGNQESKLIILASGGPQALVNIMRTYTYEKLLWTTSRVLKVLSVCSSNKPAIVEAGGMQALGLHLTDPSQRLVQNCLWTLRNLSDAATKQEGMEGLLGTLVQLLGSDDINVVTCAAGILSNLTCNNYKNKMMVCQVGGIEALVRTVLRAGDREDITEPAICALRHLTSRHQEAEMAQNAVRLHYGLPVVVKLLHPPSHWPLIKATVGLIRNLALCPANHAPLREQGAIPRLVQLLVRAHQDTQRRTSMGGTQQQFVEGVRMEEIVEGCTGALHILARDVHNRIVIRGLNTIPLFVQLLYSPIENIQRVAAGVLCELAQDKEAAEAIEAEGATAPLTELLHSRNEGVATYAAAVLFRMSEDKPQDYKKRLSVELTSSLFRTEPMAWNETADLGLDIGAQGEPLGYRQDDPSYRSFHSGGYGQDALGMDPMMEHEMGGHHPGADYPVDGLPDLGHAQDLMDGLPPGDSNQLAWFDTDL
Assay: Fluorescence polarization IC50 (beta-catenin / 5FAM-TCF4 10-53 competition)
Type: binding
Conditions: fluorescence polarization; read-out: beta-Catenin FP IC50

| IC50 | Compound |
| --- | --- |
| 568 nM | CC(C)C[C@@H]1NC(=O)[C@H](Cc2ccccc2)NC(=O)[C@H](C)NC(=O)[C@H](C)NC(=O)[C@H](CN(CC(=O)O)CC(F)(F)F)NC(=O)[C@H](CC(=O)O)NC(=O)C2(CCCCCCCCOC(=O)N3CC[C@@](C(=O)N[C@@H](Cc4ccsc4)C(=O)N[C@@H](Cc4csc5ccccc45)C(=O)N[C@@H](CCC(N)=O)C(N)=O)(C3)NC1=O)CCCCCCOc1cccc(c1)CC(=O)N1CCC[C@H]1C(=O)N[C@@H](CC(=O)O)C(=O)N[C@@H](CC(C)(C)C)C(=O)N2 (stereo partly drawn) [I-2405, ProPAc3OAllyl-Asp-Npg-B5-Asp-TfeGA-Ala-Ala-Phe-Leu-PyrS2-3Thi-BztA-Gln-NH2] |
| 1840 nM | CC(=O)N1CCC[C@]12CC=CCCCC1(CCCC=CCCOC(=O)N3CCC(C(=O)N[C@@H](Cc4ccccc4C(F)(F)F)C(=O)N[C@@H](Cc4csc5ccccc45)C(=O)N[C@@H](C)C(N)=O)(CC3)NC(=O)[C@H](CC(C)C)NC(=O)[C@H](Cc3ccccc3)NC(=O)[C@H](C)NC(=O)[C@H](CCC(N)=O)NC(=O)[C@H](Cc3cccc(C(=O)O)c3)NC(=O)[C@H](CC(=O)O)NC1=O)NC(=O)[C@H](CC(C)(C)C)NC(=O)[C@H](CC(=O)O)NC2=O (stereo partly drawn) [I-2584, Ac-PL3-Asp-Npg-B5-Asp-3COOHF-Gln-Ala-Phe-Leu-SPip1-2F3MeF-BztA-Ala-NH2] |
| 5270 nM | CCOC(=O)C[C@@H]1NC(=O)[C@]2(CC=CCCCC3(CCCC=CCCCOC(=O)N4CC[C@@](C(=O)N[C@@H](Cc5ccsc5)C(=O)N[C@@H](Cc5csc6ccccc56)C(=O)N[C@@H](CCC(N)=O)C(N)=O)(C4)NC(=O)[C@H](CC(C)C)NC(=O)[C@H](Cc4ccccc4)NC(=O)[C@H](C)NC(=O)[C@H](C)NC(=O)[C@H](CC(=O)O)NC(=O)[C@H](CC(=O)O)NC3=O)NC(=O)[C@H](CC(C)(C)C)NC1=O)CCCN2C(C)=O (stereo partly drawn) [I-2356, Ac-PL3-[Et]AspE-Npg-B5-Asp-Asp-Ala-Ala-Phe-Leu-PyrS2-3Thi-BztA-Gln-NH2] |
| 767 nM | CC(C)C[C@H](NC(=O)[C@]12CCN(C1)C(=O)OCCCC=CCCCC1(CCCC=CCCC(=O)N3CCC[C@@]3(C)C(=O)N[C@@H](CC(=O)O)C(=O)N1)C(=O)N[C@@H](C)C(=O)N[C@@H](CC(=O)O)C(=O)N[C@@H](Cc1cccc(C(=O)O)c1)C(=O)N[C@@H](C)C(=O)N[C@@H](C)C(=O)N[C@@H](Cc1ccccc1)C(=O)N2)C(=O)N[C@@H](Cc1ccsc1)C(=O)N[C@@H](Cc1csc2ccccc12)C(=O)N[C@@H](CCC(N)=O)C(N)=O (stereo partly drawn) [I-2603, 4pentenyl-MePro-Asp-B5-Ala-Asp-3COOHF-Ala-Ala-Phe-PyrS2-Leu-3Thi-BztA-Gln-NH2] |
| 2960 nM | CC(=O)N[C@]1(C)CCCCCCCCC2(CCCCCCCCOC(=O)N3CC[C@@](C(=O)N[C@@H](Cc4ccccc4C(F)(F)F)C(=O)N[C@@H](Cc4csc5ccccc45)C(=O)N[C@@H](CCC(N)=O)C(N)=O)(C3)NC(=O)[C@H](CC(C)C)NC(=O)[C@H](Cc3ccccc3)NC(=O)[C@H](C)NC(=O)[C@H](C)NC(=O)[C@H](Cc3cccc(C(=O)O)c3)NC(=O)[C@H](CC(=O)O)NC2=O)NC(=O)[C@H](CC(C)(C)C)NC(=O)[C@H](CC(=O)O)NC(=O)[C@H](C)NC1=O (stereo partly drawn) [I-2574, Ac-R5-Ala-Asp-Npg-B5-Asp-3COOHF-Ala-Ala-Phe-Leu-PyrS2-2F3MeF-BztA-Gln-NH2] |

Further lines, the molecule ahead of its results:

| Compound | IC50 |
| --- | --- |
| CC(=O)N1CC2CC1C(=O)N[C@@H](CC(=O)O)C(=O)N[C@@H](CC(C)(C)C)C(=O)NC1(CCCC=CCCCOC(=O)N3CC[C@@](C(=O)N[C@@H](Cc4ccsc4)C(=O)N[C@@H](Cc4csc5ccccc45)C(=O)N[C@@H](CCC(N)=O)C(N)=O)(C3)NC(=O)[C@H](CC(N)=O)NC(=O)[C@H](Cc3ccccc3)NC(=O)[C@H](C)NC(=O)[C@H](C)NC(=O)[C@H](CC(=O)O)NC(=O)[C@H](CC(=O)O)NC1=O)CCCC=CCC(=O)O2 (stereo partly drawn) [I-1575, Ac-HypEs4-Asp-Npg-B5-Asp-Asp-Ala-Ala-Phe-Asn-PyrS2-3Thi-BztA-Gln-NH2] | 79 nM |
| CC(=O)N1CCC[C@]12CC=CCCCC1(CCCC=CCOC(=O)N(C)CC[C@@](C)(C(=O)N[C@@H](Cc3ccsc3)C(=O)N[C@@H](Cc3csc4ccccc34)C(=O)N[C@@H](CCC(N)=O)C(N)=O)NC(=O)[C@H](CC(N)=O)NC(=O)[C@H](Cc3ccccc3)NC(=O)[C@H](C)NC(=O)[C@H](C)NC(=O)[C@H](CC(=O)O)NC(=O)[C@H](CC(=O)O)NC1=O)NC(=O)[C@H](CC(C)(C)C)NC(=O)[C@H](CC(=O)O)NC2=O (stereo partly drawn) [I-1829, Ac-PL3-Asp-Npg-B5-Asp-Asp-Ala-Ala-Phe-Asn-SdN-3Thi-BztA-Gln-NH2] | 668 nM |
| CC(=O)N1CCC[C@]12CC=CCCCC1(CCCC=CCCCOC(=O)N3CC[C@@](C(=O)N[C@@H](Cc4ccsc4)C(=O)N[C@@H](Cc4csc5ccccc45)C(=O)N[C@@H](CCC(N)=O)C(N)=O)(C3)NC(=O)[C@H](CC(N)=O)NC(=O)[C@H](Cc3ccccc3)NC(=O)[C@H](C)NC(=O)[C@H](C)NC(=O)[C@H](CC(=O)O)NC(=O)[C@H](CC(=O)O)NC1=O)NC(=O)[C@H](CC(C)(C)C)NC(=O)[C@H](CC(C)C)NC2=O (stereo partly drawn) [I-1226, Ac-PL3-Leu-Npg-B5-Asp-Asp-Ala-Ala-Phe-Asn-PyrS2-3Thi-BztA-Gln-NH2] | 559 nM |
| CCCCOC(=O)N1CCC[C@]12CC=CCCCC1(CCCC=CCCCOC(=O)N3CC[C@@](C(=O)N[C@@H](Cc4ccccc4Cl)C(=O)N[C@@H](Cc4csc5ccccc45)C(=O)N[C@@H](C)C(N)=O)(C3)NC(=O)[C@H](CC(C)C)NC(=O)[C@H](Cc3ccccc3)NC(=O)[C@H](C)NC(=O)[C@H](C)NC(=O)[C@H](Cc3cccc(C(=O)O)c3)NC(=O)[C@H](CC(=O)O)NC1=O)NC(=O)[C@H](CC(C)(C)C)NC(=O)[C@H](CC(=O)O)NC2=O (stereo partly drawn) [I-2304, CO2Bu-PL3-Asp-Npg-B5-Asp-3COOHF-Ala-Ala-Phe-Leu-PyrS2-2C1F-BztA-Ala-NH2] | 511 nM |
| CC(=O)N1CCC[C@]12CC=CCCCC1(CCCC=CCCCOC(=O)N3CC[C@@](C(=O)N[C@@H](Cc4ccsc4)C(=O)N[C@@H](Cc4csc5ccccc45)C(=O)N[C@@H](CCC(N)=O)C(N)=O)(C3)NC(=O)[C@H](CC(C)C)NC(=O)[C@H](Cn3cc(CN4CCNCC4)nn3)NC(=O)[C@H](C)NC(=O)[C@H](C)NC(=O)[C@H](CN(CC(=O)O)CC(F)(F)F)NC(=O)[C@H](CC(=O)O)NC1=O)NC(=O)[C@H](CC(C)(C)C)NC(=O)[C@H](CC(=O)O)NC2=O (stereo partly drawn) [I-1857, Ac-PL3-Asp-Npg-B5-Asp-TfeGA-Ala-Ala-[CH2Ppz]TriAzDap-Leu-PyrS2-3Thi-BztA-Gln-NH2] | 4030 nM |
| CC(=O)N1CCC[C@]12CC=CCCCC1(CCCC=CCCCOC(=O)N3CC[C@@](C(=O)N[C@@H](Cc4ccsc4)C(=O)N[C@@H](Cc4csc5ccccc45)C(=O)N[C@@H](CCC(N)=O)C(=O)N[C@H](CO)CC(C)C)(C3)NC(=O)[C@H](CC(C)C)NC(=O)[C@H](Cc3ccccc3)NC(=O)[C@H](C)NC(=O)[C@H](C)NC(=O)[C@H](CN(CC(=O)O)CC(F)(F)F)NC(=O)[C@H](CC(=O)O)NC1=O)NC(=O)[C@H](CC(C)(C)C)NC(=O)[C@H](CC(=O)O)NC2=O (stereo partly drawn) [I-1682, Ac-PL3-Asp-Npg-B5-Asp-TfeGA-Ala-Ala-Phe-Leu-PyrS2-3Thi-BztA-Gln-Leuo1] | 41 nM |
| CC(=O)N1CCC[C@]12CCCCCCC1(CCCCCCCCOC(=O)N3CC[C@@](C(=O)N[C@@H](Cc4ccsc4)C(=O)N[C@@H](Cc4csc5ccccc45)C(=O)N[C@@H](CC(C)C)C(N)=O)(C3)NC(=O)[C@H](CC(C)C)NC(=O)[C@H](Cc3ccccc3)NC(=O)[C@H](C)NC(=O)[C@H](C)NC(=O)[C@H](CN(CC(=O)O)CC(F)(F)F)NC(=O)[C@H](CC(=O)O)NC1=O)NC(=O)[C@H](CC(C)(C)C)NC(=O)[C@H](CC(=O)O)NC2=O (stereo partly drawn) [I-1753, Ac-PL3-Asp-Npg-B5-Asp-TfeGA-Ala-Ala-Phe-Leu-PyrS2-3Thi-BztA-Leu-NH2] | 802 nM |
| CC(=O)N1CCC[C@]12CC=CCCC1(CCC=CCCCCOC(=O)N3CC[C@@](C(=O)N[C@@H](Cc4ccsc4)C(=O)N[C@@H](Cc4csc5ccccc45)C(=O)N[C@@H](CCC(N)=O)C(N)=O)(C3)NC(=O)[C@H](CC(C)C)NC(=O)[C@H](Cc3ccccc3)NC(=O)[C@H](C)NC(=O)[C@H](C)NC(=O)[C@H](CC(=O)O)NC(=O)[C@H](CC(=O)O)NC1=O)NC(=O)[C@H](CC(C)(C)C)NC(=O)[C@H](CC(=O)O)NC2=O (stereo partly drawn) [I-1973, Ac-PL3-Asp-Npg-B4-Asp-Asp-Ala-Ala-Phe-Leu-PyrS3-3Thi-BztA-Gln-NH2] | 797 nM |
| CC(=O)N1CCC[C@]12CC=CCCCC1(CCCC=CCCCOC(=O)N3CC[C@@](C(=O)N[C@@H](Cc4ccsc4)C(=O)N[C@@H](Cc4csc5ccccc45)C(=O)N[C@@H](C)C(N)=O)(C3)NC(=O)[C@H](CC(C)C)NC(=O)[C@H](Cc3ccccc3)NC(=O)[C@H](C)NC(=O)[C@H](C)NC(=O)[C@H](Cc3cccc(C(=O)O)c3)NC(=O)[C@H](CC(=O)O)NC1=O)NC(=O)[C@H](CC(C)(C)C)NC(=O)[C@H]([C@@H](O)C(=O)O)NC2=O (stereo partly drawn) [I-2258, Ac-PL3-RbOHAsp-Npg-B5-Asp-3COOHF-Ala-Ala-Phe-Leu-PyrS2-3Thi-BztA-Ala-NH2] | 272 nM |
